Assays:
Test in all cases: relative viability (nuclei count vs DMSO), 5 days (fraction); higher = more cells survive
NCI-H1437 = system: NCI-H1437
How it was run: (§1)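 After 5 days of treatment, lung cancer cells in 1536-well plates were fixed and stained in a single step (final 0.05% Triton X-100, 1% formaldehyde, 1 ug/ml Hoechst) and their nuclei counted on 4× images. Treatment had been applied by pin tool the day after seeding as one drug alone or as a fixed anchor-drug dose with five library-drug doses (not always all listed) in √10 steps. Relative viability is the nuclei count of treated wells divided by that of vehicle wells, and values are medians of duplicate plates.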

NCI-H358 = system: NCI-H358
How it was run: as §1

HCC-15 = system: HCC-15
How it was run: as §1

NCI-H1915 = system: NCI-H1915
How it was run: as §1

NCI-H2170 = system: NCI-H2170
How it was run: as §1

NCI-H727 = system: NCI-H727
How it was run: as §1

NCI-H3122 = system: NCI-H3122
How it was run: as §1

HCC-44 = system: HCC-44
How it was run: as §1

SW 900 = system: SW 900
How it was run: as §1

LC-2-ad = system: LC-2-ad
How it was run: as §1

NCI-H1734 = system: NCI-H1734
How it was run: as §1

NCI-H1395 = system: NCI-H1395
How it was run: as §1

HOP-62 = system: HOP-62
How it was run: as §1

NCI-H2126 = system: NCI-H2126
How it was run: as §1

NCI-H650 = system: NCI-H650
How it was run: as §1

BEN = system: BEN
How it was run: as §1

EMC-BAC-2 = system: EMC-BAC-2
How it was run: as §1

LU99A = system: LU99A
How it was run: as §1

NCI-H1755 = system: NCI-H1755
How it was run: as §1

SMILES: Cc1csc(=NC2CCCCC2)n1/N=C/c1ccc(O)c(O)c1O [MIM1] + NC(=O)Nc1cc(-c2cccc(F)c2)sc1C(=O)N[C@H]1CCCNC1 [AZD7762] (partner 0.2 µM)
- relative viability (NCI-H1437; first compound 0.2 µM): 1.02
- relative viability (NCI-H1437; first compound 0.6325 µM): 1.12
- relative viability (NCI-H1437; first compound 2 µM): 1.18
- relative viability (NCI-H1437; first compound 6.325 µM): 0.916
- relative viability (NCI-H1437; first compound 20 µM): 0.666
- relative viability (NCI-H358; first compound 0.2 µM): 0.496
- relative viability (NCI-H358; first compound 0.6325 µM): 0.512
- relative viability (NCI-H358; first compound 2 µM): 0.468
- relative viability (NCI-H358; first compound 6.325 µM): 0.342
- relative viability (NCI-H358; first compound 20 µM): 0.231
- relative viability (HCC-15; first compound 0.2 µM): 1.2
- relative viability (HCC-15; first compound 2 µM): 1.23
- relative viability (HCC-15; first compound 6.325 µM): 0.808
- relative viability (HCC-15; first compound 20 µM): 0.179
- relative viability (NCI-H1915; first compound 0.2 µM): 0.691
- relative viability (NCI-H1915; first compound 0.6325 µM): 0.495
- relative viability (NCI-H1915; first compound 2 µM): 0.574
- relative viability (NCI-H1915; first compound 6.325 µM): 0.384
- relative viability (NCI-H1915; first compound 20 µM): 0.283
- relative viability (NCI-H2170; first compound 0.2 µM): 0.857
- relative viability (NCI-H2170; first compound 0.6325 µM): 0.826
- relative viability (NCI-H2170; first compound 2 µM): 0.759
- relative viability (NCI-H2170; first compound 6.325 µM): 0.368
- relative viability (NCI-H2170; first compound 20 µM): 0.158
- relative viability (NCI-H727; first compound 0.2 µM): 0.663
- relative viability (NCI-H727; first compound 0.6325 µM): 0.573
- relative viability (NCI-H727; first compound 2 µM): 0.435
- relative viability (NCI-H727; first compound 6.325 µM): 0.528
- relative viability (NCI-H727; first compound 20 µM): 0.348
- relative viability (NCI-H3122; first compound 0.2 µM): 0.945
- relative viability (NCI-H3122; first compound 0.6325 µM): 0.978
- relative viability (NCI-H3122; first compound 2 µM): 0.973
- relative viability (NCI-H3122; first compound 6.325 µM): 0.472
- relative viability (NCI-H3122; first compound 20 µM): 0.19
- relative viability (HCC-44; first compound 0.2 µM): 0.985
- relative viability (HCC-44; first compound 0.6325 µM): 0.985
- relative viability (HCC-44; first compound 2 µM): 0.961
- relative viability (HCC-44; first compound 6.325 µM): 0.947
- relative viability (HCC-44; first compound 20 µM): 0.521
- relative viability (SW 900; first compound 0.2 µM): 0.669
- relative viability (SW 900; first compound 0.6325 µM): 0.615
- relative viability (SW 900; first compound 2 µM): 0.592
- relative viability (SW 900; first compound 6.325 µM): 0.296
- relative viability (SW 900; first compound 20 µM): 0.19
- relative viability (LC-2-ad; first compound 0.2 µM): 0.804
- relative viability (LC-2-ad; first compound 0.6325 µM): 0.706
- relative viability (LC-2-ad; first compound 2 µM): 0.9
- relative viability (LC-2-ad; first compound 6.325 µM): 0.389
- relative viability (LC-2-ad; first compound 20 µM): 0.234
- relative viability (NCI-H1734; first compound 0.2 µM): 0.524
- relative viability (NCI-H1734; first compound 0.6325 µM): 0.467
- relative viability (NCI-H1734; first compound 2 µM): 0.492
- relative viability (NCI-H1734; first compound 6.325 µM): 0.417
- relative viability (NCI-H1734; first compound 20 µM): 0.158
- relative viability (NCI-H1395; first compound 0.2 µM): 0.416
- relative viability (NCI-H1395; first compound 0.6325 µM): 0.409
- relative viability (NCI-H1395; first compound 2 µM): 0.338
- relative viability (NCI-H1395; first compound 6.325 µM): 0.387
- relative viability (NCI-H1395; first compound 20 µM): 0.337
- relative viability (HOP-62; first compound 0.2 µM): 0.557
- relative viability (HOP-62; first compound 0.6325 µM): 0.662
- relative viability (HOP-62; first compound 2 µM): 0.756
- relative viability (HOP-62; first compound 6.325 µM): 0.506
- relative viability (HOP-62; first compound 20 µM): 0.0832
- relative viability (NCI-H2126; first compound 0.2 µM): 0.934
- relative viability (NCI-H2126; first compound 0.6325 µM): 0.985
- relative viability (NCI-H2126; first compound 2 µM): 1.07
- relative viability (NCI-H2126; first compound 6.325 µM): 0.913
- relative viability (NCI-H2126; first compound 20 µM): 0.786
- relative viability (NCI-H650; first compound 0.2 µM): 1.05
- relative viability (NCI-H650; first compound 0.6325 µM): 1.03
- relative viability (NCI-H650; first compound 2 µM): 0.866
- relative viability (NCI-H650; first compound 6.325 µM): 0.975
- relative viability (NCI-H650; first compound 20 µM): 0.271
- relative viability (BEN; first compound 0.2 µM): 0.781
- relative viability (BEN; first compound 0.6325 µM): 0.645
- relative viability (BEN; first compound 2 µM): 0.67
- relative viability (BEN; first compound 6.325 µM): 0.707
- relative viability (BEN; first compound 20 µM): 0.336
- relative viability (EMC-BAC-2; first compound 0.2 µM): 1.12
- relative viability (EMC-BAC-2; first compound 0.6325 µM): 0.776
- relative viability (EMC-BAC-2; first compound 2 µM): 1.09
- relative viability (EMC-BAC-2; first compound 6.325 µM): 0.999
- relative viability (EMC-BAC-2; first compound 20 µM): 0.314
- relative viability (LU99A; first compound 0.2 µM): 0.364
- relative viability (LU99A; first compound 0.6325 µM): 0.265
- relative viability (LU99A; first compound 2 µM): 0.258
- relative viability (LU99A; first compound 6.325 µM): 0.218
- relative viability (LU99A; first compound 20 µM): 0.0782
- relative viability (NCI-H1755; first compound 0.2 µM): 0.464
- relative viability (NCI-H1755; first compound 0.6325 µM): 0.436
- relative viability (NCI-H1755; first compound 2 µM): 0.433
- relative viability (NCI-H1755; first compound 6.325 µM): 0.38
- relative viability (NCI-H1755; first compound 20 µM): 0.354

From the supplement of paper PMC10307832
